Measured values from paper PMC7022596, “Identification of the NADP^+ Structural Binding Site and Coenzyme Effect on the Fused G6PD::6PGL Protein from Giardia lamblia” (Biomolecules, 2019).

Biological target: T1, fused G6PD::6PGL protein (Giardia duodenalis, UniProt A8BWM5)
T1 construct: gene GL50803_008682; natural fusion of G6PD and 6PGL domains in one open reading frame; pET-3a/g6pd::6pgl in E. coli BL21(DE3)Δzwf::kan^r; 2',5'-ADP Sepharose and Sephacryl 200; dimer
T1 sequence (A8BWM5 1-742): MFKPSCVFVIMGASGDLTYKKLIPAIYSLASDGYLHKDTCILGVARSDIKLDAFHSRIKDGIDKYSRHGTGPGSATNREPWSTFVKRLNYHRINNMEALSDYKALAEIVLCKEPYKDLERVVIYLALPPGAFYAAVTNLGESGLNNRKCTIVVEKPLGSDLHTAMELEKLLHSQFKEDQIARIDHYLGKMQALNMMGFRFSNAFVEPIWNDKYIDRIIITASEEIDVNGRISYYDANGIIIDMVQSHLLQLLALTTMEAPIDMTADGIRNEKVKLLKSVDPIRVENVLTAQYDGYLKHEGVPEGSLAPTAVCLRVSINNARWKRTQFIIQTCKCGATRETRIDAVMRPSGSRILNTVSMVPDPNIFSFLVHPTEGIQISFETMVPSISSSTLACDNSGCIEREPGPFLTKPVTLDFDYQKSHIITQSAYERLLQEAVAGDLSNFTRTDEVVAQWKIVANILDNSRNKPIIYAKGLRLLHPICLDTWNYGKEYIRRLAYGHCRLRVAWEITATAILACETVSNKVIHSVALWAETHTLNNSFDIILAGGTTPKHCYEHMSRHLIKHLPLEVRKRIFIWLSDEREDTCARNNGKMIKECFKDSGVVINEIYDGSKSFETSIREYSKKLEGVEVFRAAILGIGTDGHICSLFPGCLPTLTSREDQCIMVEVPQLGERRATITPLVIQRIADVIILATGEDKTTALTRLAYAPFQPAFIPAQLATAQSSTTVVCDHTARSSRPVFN
Assay: intrinsic tryptophan fluorescence quenching titration
Format: binding

Question: For NC(=O)c1ccc[n+]([C@@H]2O[C@H](COP(=O)(O)OP(=O)(O)OC[C@H]3O[C@@H](n4cnc5c(N)ncnc54)[C@H](OP(=O)(O)O)[C@@H]3O)[C@@H](O)[C@H]2O)c1 [NADP^+], which Kd is on record?
Answer: The Kd was 0.0632 µM.
